Assay type in all cases: cell-based
Experiment [1] concerns Aβ42. Briefly: Screening for γ-secretase-modulating activity, Method 2: Aβ42 Alphalisa on SKNBE2 cell supernatant. The following applies: Method 2, Table 3c, SKNBE2 cells carrying APP 695 wild type, overnight incubation. How it is done: (§1) Screening was carried out using SKNBE2 cells carrying the APP 695—wild type, grown in Dulbecco's Modified Eagle's Medium/Nutrient mixture F-12 (DMEM/NUT-mix F-12) (HAM) provided by Invitrogen (cat no. 10371-029) containing 5% Serum/Fe supplemented with 1% non-essential amino acids, 1-glutamine 2 mM, Hepes 15 mM, penicillin 50 U/ml (units/ml) en streptomycin 50 μg/ml. Cells were grown to near confluency.
(§2) The screening was performed using a modification of the assay as described in Citron et al (1997) Nature Medicine 3: 67. Briefly, cells were plated in a 384-well plate at 10^4 cells/well in Ultraculture (Lonza, BE12-725F) supplemented with 1% glutamine (Invitrogen, 25030-024), 1% non-essential amino acid (NEAA), penicillin 50 U/ml en streptomycin 50 μg/ml in the presence of test compound at different test concentrations. The cell/compound mixture was incubated overnight at 37° C., 5% CO2. The next day the media were assayed by two sandwich immuno-assays, for Aβ42 and Aβtotal.
(§3) Aβtotal and Aβ42 concentrations were quantified in the cell supernatant using the Aphalisa technology (Perkin Elmer). Alphalisa is a sandwich assay using biotinylated antibody attached to streptavidin coated donorbeads and antibody conjugated to acceptor beads. In the presence of antigen, the beads come into close proximity. The excitation of the donor beads provokes the release of singlet oxygen molecules that trigger a cascade of energy transfer in the acceptor beads, resulting in light emission. To quantify the amount of Aβ42 in the cell supernatant, monoclonal antibody specific to the C-terminus of Aβ42 (JRF/cAβ42/26) was coupled to the receptor beads and biotinylated antibody specific to the N-terminus of Aβ (JRF/AβN/25) was used to react with the donor beads. To quantify the amount of Aβtotal in the cell supernatant, monoclonal antibody specific to the N-terminus of Aβ (JRF/AβN/25) was coupled to the receptor beads and biotinylated antibody specific to the mid region of Aβ (biotinylated 4G8) was used to react with the donor beads.
(§4) To obtain the values reported in Table 3c, the data were calculated as percentage of the maximum amount of amyloid Beta 42 measured in the absence of the test compound. The sigmoidal dose response curves were analyzed using non-linear regression analysis with percentage of the control plotted against the log concentration of the compound. A 4-parameter equation was used to determine the IC50.
For orientation: Alpha assays give light when donor and acceptor beads are brought close together.

For experiment [2], the system named is Aβtotal. Briefly: Screening for γ-secretase-modulating activity, Method 2: Aβtotal Alphalisa on SKNBE2 cell supernatant. To be noted: Method 2, Table 3c, SKNBE2 cells carrying APP 695 wild type, overnight incubation. As for the experimental part: as §1, §2, §3, §4
Experiment [3] concerns Aβ42. Description: Screening for γ-secretase-modulating activity, Method 1: Aβ42 sandwich ELISA on SKNBE2 cell media. The following applies: SKNBE2 cells carrying APP 695 wild type. In a few lines:
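SKNBE2 cells expressing wild-type APP695 were treated with compound for 18 h in Ultraculture/1% glutamine. Secreted Aβ42 was quantified by sandwich ELISA (C-terminal capture, biotinylated 3D6, TMB, 450 nm), with WST-1 used as a toxicity check. IC50 was derived from 4-parameter fits of % inhibition or % of untreated control.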
In general terms: In an ELISA, binding on a coated surface is turned into a signal by an enzyme label.

Where [4] appears, read: Table 3a, 18 hours, XLfit, top/bottom fixed to 100 and 0, hill slope 1.
Where [5] appears, read: Table 3b, non-linear regression of % of control, averaged IC50 values.

Bounds are passed on as bounds.

For the compound `Cc1ncn(-c2ccc(Nc3cc(C(F)(F)F)cc4c3nc(-c3ccc(F)cc3)n4C)cc2)n1` [Compound 69], the concentration for half-maximal inhibition (IC50) is 417 nM in experiment [1], greater than 10000 nM in experiment [2], 106 nM in experiment [3] (setting [4]) and 117 nM in experiment [3] (setting [5]).

Turning to `COc1cc(Nc2nccc3c2nc(CC2CC2)n3C)ccc1-n1ncnc1C` [Compound 101], the concentration for half-maximal inhibition (IC50) is 5890 nM in experiment [1], greater than 10000 nM in experiment [2], greater than 3000 nM in experiment [3] (setting [4]) and greater than 3000 nM in experiment [3] (setting [5]).

For `Cc1cn(-c2ccc(Nc3nc(C)cc4c3nc(-c3cccnc3)n4C)cc2F)cn1` [Compound 143], the figures for the IC50 in experiment [1] and in experiment [2] were 550 nM and greater than 10000 nM, respectively.

For the compound `COc1ccc(-c2nc3c(Nc4ccc(-n5cnc(C)c5)c(F)c4)nc(C)cc3n2C)c(F)c1` [Compound 144], the IC50 in experiment [1] was 145 nM; in experiment [2] it was greater than 10000 nM.

Take `COc1nc(Nc2cccc3c2nc(-c2ccc(=O)n(C)c2)n3C)ccc1-n1cnc(C)c1` [Compound 146]: the IC50 in experiment [1] is 347 nM; in experiment [2] it was greater than 10000 nM.

With `COc1cc(Nc2nc(C)cc3c2nc(-c2ccccc2Cl)n3C)ccc1-n1cnc(C)n1` [Compound 147], the IC50 came out at 44 nM in experiment [1] and 7940 nM in experiment [2].

Turning to `COc1cccc(-c2nc3c(Nc4ccc(-n5cnc(C)c5)c(OC)n4)cccc3o2)c1` [Compound 152], the half-maximal inhibitory concentration (IC50) amounted to 234 nM in experiment [1] and 8130 nM in experiment [2].

With `CCOc1cccc(-c2nc3c(Nc4ccc(-n5cnc(C)c5)c(F)c4)nc(C)cc3n2C)c1` [Compound 153], the figures for the IC50 in experiment [1] and in experiment [2] were 12 nM and 6460 nM, respectively.

Turning to `Cc1cc2c(nc(-c3ccc(F)cc3)n2C)c(Nc2ccc(-n3cc(C)nc3I)c(F)c2)n1` [Compound 154], the IC50 is 19 nM in experiment [1] (Homo sapiens) and 560 nM in experiment [2] (Homo sapiens).

Consider `Cc1cn(-c2ccc(Nc3nc(C)cc4c3nc(-c3ccc(F)c(Br)c3)n4C)cc2F)cn1` [Compound 155], for which the 50% inhibitory concentration (IC50) in experiment [1] is 8 nM; in experiment [2] it was greater than 10000 nM.

Regarding `COc1cc(Nc2cncc3c2nc(-c2ccc(F)cc2)n3C)ccc1-n1cnc(C)n1` [Compound 158], the half-maximal inhibitory concentration (IC50) is 166 nM in experiment [1] and greater than 10000 nM in experiment [2].

Turning to `COc1nc(Nc2cccc3c2nc(-c2ccc(F)cc2)n3C)ccc1-n1cnc(C)n1` [Compound 161], the half-maximal inhibitory concentration (IC50) in experiment [1] was 7 nM; in experiment [2], greater than 10000 nM.

As to `COc1nc(Nc2cccc3c2nc(-c2ccc(C(F)(F)F)cc2)n3C)ccc1-n1cnc(C)c1` [Compound 168], the results for the IC50 in experiment [1] and in experiment [2] were 8 nM and 7760 nM, respectively.

With `COc1nc(Nc2cccc3c2nc(-c2ccc(F)c(I)c2)n3C)ccc1-n1cnc(C)c1` [Compound 169], the concentration for half-maximal inhibition (IC50) in experiment [1] is 5 nM; in experiment [2] it was greater than 10000 nM.

For `COc1nc(Nc2cccc3c2nc(-c2ccccc2OC(F)(F)F)n3C)ccc1-n1cnc(C)c1` [Compound 170], the figures for the IC50 in experiment [1] and in experiment [2] were 36 nM and 9120 nM, respectively.

Turning to `COc1nc(Nc2cccc3c2nc(-c2cccc(F)c2)n3C)ccc1-n1cnc(C)c1` [Compound 171], the IC50 in experiment [1] is 27 nM; in experiment [2], greater than 10000 nM.

As to `COc1nc(Nc2cccc3c2nc(-c2ccccc2C(F)(F)F)n3C)ccc1-n1cnc(C)c1` [Compound 172], the 50% inhibitory concentration (IC50) was 23 nM in experiment [1] and greater than 10000 nM in experiment [2].

`COc1nc(Nc2cccc3c2nc(-c2cccc(N(C)C)c2)n3C)ccc1-n1cnc(C)c1` [Compound 173]: the IC50 in experiment [1] was determined as 20 nM; in experiment [2] it was 7940 nM.

Turning to `COc1nc(Nc2cccc3c2nc(-c2ccc(F)c(F)c2)n3C)ccc1-n1cnc(C)c1` [Compound 175], the 50% inhibitory concentration (IC50) was 21 nM in experiment [1] and greater than 10000 nM in experiment [2].

For `COc1nc(Nc2cccc3c2nc(-c2cccc(F)c2F)n3C)ccc1-n1cnc(C)c1` [Compound 176], the IC50 is 23 nM in experiment [1] and greater than 10000 nM in experiment [2].

With `COc1cccc(-c2nc3c(Nc4ccc(-n5cnc(C)c5)c(OC)n4)cccc3n2C)c1` [Compound 177], the values for the IC50 in experiment [1] and in experiment [2] were 20 nM and 8910 nM, respectively.

Consider `COc1ccc(-c2nc3c(Nc4ccc(-n5cnc(C)c5)c(OC)n4)cccc3n2C)cc1` [Compound 178], for which the figures for the IC50 in experiment [1] and in experiment [2] were 23 nM and greater than 10000 nM, respectively.

Turning to `CCOc1cccc(-c2nc3c(Nc4ccc(-n5cnc(C)c5)c(OC)n4)cccc3n2C)c1` [Compound 179], the IC50 in experiment [1] stood at 11 nM; in experiment [2], 7940 nM.

For the compound `COc1ccc(F)c(-c2nc3c(Nc4ccc(-n5cnc(C)c5)c(OC)n4)cccc3n2C)c1` [Compound 180], the half-maximal inhibitory concentration (IC50) was 18 nM in experiment [1] and greater than 10000 nM in experiment [2].

On to `COc1ccc(-c2nc3c(Nc4ccc(-n5cnc(C)c5)c(OC)n4)cccc3n2C)c(F)c1` [Compound 182], for which the 50% inhibitory concentration (IC50) in experiment [1] is 39 nM; in experiment [2], greater than 10000 nM.

Take `COc1cc(-c2nc3c(Nc4ccc(-n5cnc(C)c5)c(OC)n4)cccc3n2C)cc(C(F)(F)F)c1` [Compound 183]: the IC50 in experiment [1] stood at 10 nM; in experiment [2], 9120 nM.

For `COc1nc(Nc2cccc3c2nc(-c2ccc(F)cc2C)n3C)ccc1-n1cnc(C)c1` [Compound 185], the results for the half-maximal inhibitory concentration (IC50) in experiment [1] and in experiment [2] were 25 nM and greater than 10000 nM, respectively.

On to `COc1cc(F)cc(-c2nc3c(Nc4ccc(-n5cnc(C)c5)c(OC)n4)cccc3n2C)c1` [Compound 188], for which the results for the half-inhibitory concentration (IC50) in experiment [1] and in experiment [2] were 14 nM and 8320 nM, respectively.

As to `COc1nc(Nc2cccc3c2nc(-c2ccc(F)cc2F)n3C)ccc1-n1cnc(C)c1` [Compound 190], the half-inhibitory concentration (IC50) in experiment [1] was 26 nM; in experiment [2] it was greater than 10000 nM.

In the case of `COc1nc(Nc2cccc3c2nc(-c2ccc(OC(F)(F)F)cc2)n3C)ccc1-n1cnc(C)c1` [Compound 191], the IC50 in experiment [1] was 18 nM; in experiment [2] it was greater than 10000 nM.

`COc1nc(Nc2cccc3c2nc(-c2ccc(F)c(C(F)(F)F)c2)n3C)ccc1-n1cnc(C)c1` [Compound 192]: the IC50 in experiment [1] was found to be 13 nM; in experiment [2], 8910 nM.

Regarding `COc1nc(Nc2cccc3c2nc(-c2ccccc2F)n3C)ccc1-n1cnc(C)c1` [Compound 193], the IC50 in experiment [1] stood at 39 nM; in experiment [2], 7080 nM.

Consider `COc1ccc(-c2nc3c(Nc4ccc(-n5cnc(C)c5)c(OC)n4)cccc3n2C)c(C)c1` [Compound 194], for which the concentration for half-maximal inhibition (IC50) in experiment [1] was 22 nM; in experiment [2] it was greater than 10000 nM.

On to `COc1nc(Nc2cccc3c2nc(-c2cc(C(F)(F)F)ccc2C)n3C)ccc1-n1cnc(C)c1` [Compound 195], for which the IC50 in experiment [1] stood at 25 nM; in experiment [2], 6460 nM.

As for `COc1nc(Nc2cccc3c2nc(-c2ccccc2)n3C)ccc1-n1cnc(C)c1` [Compound 196], the IC50 came out at 19 nM in experiment [1] and 8510 nM in experiment [2].

For `COc1nc(Nc2cccc3c2nc(-c2ccc(N(C)C)cc2)n3C)ccc1-n1cnc(C)c1` [Compound 197], the IC50 in experiment [1] is 35 nM; in experiment [2] it was 8230 nM.

Turning to `COc1nc(Nc2cccc3c2nc(-c2cccc(C#N)c2)n3C)ccc1-n1cnc(C)c1` [Compound 198], the IC50 is 48 nM in experiment [1] and greater than 10000 nM in experiment [2].

Turning to `COc1cc(Nc2cc(C3CC3)nc3c2nc(-c2ccc(F)cc2)n3C)ccc1-n1cnc(C)n1` [Compound 199], the IC50 in experiment [1] is 13 nM; in experiment [2], greater than 10000 nM.

Take `COc1cc(Nc2ccnc3c2nc(-c2ccc(F)cc2)n3C)ccc1-n1cnc(C)n1` [Compound 200]: the results for the IC50 in experiment [1] and in experiment [2] were 40 nM and greater than 10000 nM, respectively.

Consider `COc1nc(Nc2ccnc3c2nc(-c2ccc(F)cc2)n3C)ccc1-n1cnc(C)c1` [Compound 201], for which the IC50 in experiment [1] was 4 nM; in experiment [2], greater than 10000 nM.

As to `COc1nc(Nc2cc(C)nc3c2nc(-c2ccc(F)cc2)n3C)ccc1-n1cnc(C)c1` [Compound 203], the figures for the IC50 in experiment [1] and in experiment [2] were 4 nM and greater than 10000 nM, respectively.

For `COc1cc(Nc2ccc(-n3cnc(C)c3)c(F)c2)c2nc(-c3ccc(F)cc3)n(C)c2n1` [Compound 204], the IC50 in experiment [1] is 14 nM; in experiment [2], greater than 10000 nM.

With `Cc1cn(-c2ccc(Nc3ccnc4c3nc(-c3ccc(F)cc3)n4C)cc2F)cn1` [Compound 205], the values for the concentration for half-maximal inhibition (IC50) in experiment [1] and in experiment [2] were 63 nM and greater than 10000 nM, respectively.

One may read the IC50 as the concentration needed to halve the response being measured. A low value points to greater potency.

For the origin of these results see patent US8772504B2, “Substituted benzoxazole, benzimidazole, oxazolopyridine and imidazopyridine derivatives as gamma secretase modulators” (Janssen Pharmaceuticals, Inc., priority 2009, dated 2014).
